# Data as given in US20110059114A1, “Compositions and Methods for the Treatment of Radioresistant Glioma Stem Cells” (DUKE UNIVERSITY, priority 2009, published 2011).
# Key:
# Chk1 and Chk2 = assay: Immunoblotting of activating phosphorylation of Chk1 and Chk2; assay type: cell-based, human; details: following radiation, pretreated 24 hours
# Procedure: (A) T4302 CD133+ cells were pretreated with DPAT or L685,458 for 24 hours prior radiation. One hour after radiation exposure, cells were harvested. The levels of activating phosphorylation of Chk1 and Chk2 were assessed by immunoblotting. (B) T4302 CD133+ cells were treated with 2 μM DAPT at 4, 24 hours prior to radiation (−24 hrs, or -4 hrs), or at 0, 4, 24 hours after radiation. Relative caspase 3/7 activities were measured 3 days after radiation exposure. *: p<0.001 by Student's t-test.
# Antibodies, DNA constructs, lentiviruses and other reagents. The antibodies purchased from Cell Signaling Technology (Danvers, M A) include phosphor-S296-Chk1 (2349), total Chk1 (2345), phosphor-T68-Chk2 (2661), total Chk2 (2662), phospho-5473 Akt (#9271), total Akt (#9272), PTEN (#9556), phospho-S15-p53 (#9286), Bcl-2 (#2870), Bcl-xL (#2764), Mcl-1 (#4572), Puma (#4976). Other antibodies used in this study are p53 antibody (#sc-126, Santa Cruz Biotechnology, Santa Cruz, Calif.), and actin antibody (Millipore, Billerica, Mass.). The pcDNA3-Notch1 construct was kindly provided by Dr. Spyros Artavanis-Tsakonas, Harvard University. The coding sequences of intracellular domain of Notch1 (amino acid residues 1744-2556) was amplified by PCR and subcloned into the lentiviral vector pCDH-CMV-EF1-puro (System Biosciences, Mountain View, Calif.) through the EcoRI and NotI sites. […]
# Akt = assay: Immunoblotting of phospho-Akt (S473); assay type: cell-based, human; details: 2 μM DAPT
# Procedure: FIG. 5 is a set of immunoblots and a graph illustrating that the Notch pathway regulates radioresistance of glioma stem cells via the Akt pathway and Mcl-1. T4302 CD 133+ cells were infected with control lentivirus or lentivirus directing expression of NICD2. Cells were pre-treated with or without 2 μM DPAT for 4 hours and exposed to 3-Gy radiation. Irradiated cells were collected at 24 or 48 hours after radiation, and sham-irradiated cells were collected at 48 hours after radiation. (A, C, D) Protein levels of phospho-Akt (S473), total Akt, PTEN, Bcl-2, Bcl-xL, Mcl-1, phospho-p53 (S15), total p53 and PUMA were assessed by immunoblotting. Actin was blotted as the loading control. (B) Control cells or NICD2-expressing cells were pre-treated with 10 μM PI3K inhibitor, LY294002, or 50 μM Akt inhibitor III (SH-6), for 4 hours prior to radiation exposure. Relative caspase 3/7 activities were determined at 48 hours after radiation exposure. #: p<0.001, by one-way ANOVA.
# FIG. 13 is an immunoblot illustrating that LY294002 or Akt inhibitor III reduce Akt activity in glioma stem cells. T4302 glioma stem cells were treated with 10 μM LY294002 or 50 μM Akt inhibitor III (SH-6) in the presence or absence of radiation. Cells were collected for immunoblotting at 48 hours after radiation as described in FIG. 5.
# Antibodies, DNA constructs, lentiviruses and other reagents. […]
compound,measurement,setting,value
"CC(NC(=O)Cc1cc(F)cc(F)c1)C(=O)NC(C(=O)OC(C)(C)C)c1ccccc1 [DAPT, N-[N-(3,5-Difluorophenacetyl-L-alanyl)]-S-phenylglycine t-Butyl Ester]",activating phosphorylation of Chk1 or Chk2,Chk1 and Chk2,"Neither of DAPT or L685,458 significantly altered"
same,Akt activation (phospho-S473 Akt),"Akt; 3-Gy radiation, control cells",reduced Akt activation
same,Akt activities increased by NICD2 expression,Akt; NICD2-expressing cells,partially attenuated but not abolished
